Reference: patent US8927717B1, “Thiochromeno[2,3-c]quinolin-12-one derivatives, preparation method and application thereof” (National Defense Medical Center, priority 2014, dated 2015)

Experiments:
Assay type in all cases: cell-based
SNB-75 = conditions: SNB-75; five dose
U251 = system: U251
LOX IMVI = system: LOX IMVI
SK-MEL-5 = system: SK-MEL-5
OVCAR-8 = system: OVCAR-8
SK-OV-3 = system: SK-OV-3
786-0 = system: 786-0
ACHN = system: ACHN
RXF 393 = system: RXF 393
SN12C = system: SN12C
UO-31 = system: UO-31
PC-3 = system: PC-3
DU-145 = system: DU-145
MCF7 = system: MCF7
MDA-MB-231/ATCC = system: MDA-MB-231/ATCC
HS 578T = system: HS 578T
BT-549 = system: BT-549
T-47D = conditions: Breast cancer; 10^−5 molar; 48 hours; SRB
MDA-MB-486 = system: MDA-MB-486
60 cancer cell lines = experiment: NCI 60-cell screen, SRB, whole panel (mean, delta, range)
[1] = Homo sapiens, U-251, U251, five dose
[2] = Homo sapiens, LOX IMVI, five dose
[3] = Melanoma, 10^−5 molar, 48 hours, SRB
[4] = Homo sapiens, SK-MEL-5, five dose
[5] = Ovarian cancer, 10^−5 molar, 48 hours, SRB
[6] = Renal cancer, 10^−5 molar, 48 hours, SRB
[7] = Prostate cancer, 10^−5 molar, 48 hours, SRB
[8] = Breast cancer, 10^−5 molar, 48 hours, SRB

Compound: CN(C)CCNc1nc2ccccc2c2c(=O)c3cc(Cl)ccc3sc12 [Compound N7, 10-Chloro-6-((2-(dimethylamino)ethyl)amino)-12H-thiochromeno[2,3-c]quinolin-12-one]
- TGI (SNB-75): 3.69 µM
- Growth percent U251 (U251; CNS cancer, 10^−5 molar, 48 hours, SRB): −39.75%
- GI50 (U251; [1]): 1.48 µM
- LC50 (U251; [1]): 5.44 µM
- TGI (U251; U251, five dose): 2.84 µM
- GI50 (LOX IMVI; [2]): 1.68 µM
- LC50 (LOX IMVI; [2]): 6.24 µM
- TGI (LOX IMVI; LOX IMVI, five dose): 3.24 µM
- Growth percent LOX IMVI (LOX IMVI; [3]): −84.12%
- GI50 (SK-MEL-5; [4]): 1.57 µM
- LC50 (SK-MEL-5; [4]): 8.21 µM
- Growth percent SK-MEL-5 (SK-MEL-5; [3]): 18.83%
- TGI (SK-MEL-5; SK-MEL-5, five dose): 3.59 µM
- GI50 (OVCAR-8; Homo sapiens, OVCAR-8, five dose): 1.64 µM
- CC50 (OVCAR-8; Homo sapiens, OVCAR-8, five dose, read-out: LC50 (the source's name)): 6.06 µM
- TGI (OVCAR-8; OVCAR-8, five dose): 3.15 µM
- Growth percent OVCAR-8 (OVCAR-8; [5]): 1.22%
- GI50 (SK-OV-3; Homo sapiens, SK-OV-3, five dose): 1.68 µM
- CC50 (SK-OV-3; Homo sapiens, SK-OV-3, five dose, read-out: LC50 (the source's name)): 5.58 µM
- Growth percent SK-OV-3 (SK-OV-3; [5]): 70.10%
- TGI (SK-OV-3; SK-OV-3, five dose): 3.06 µM
- TGI (786-0; 786-0, five dose): 3.45 µM
- GI50 (786-0; Homo sapiens, 786-0, five dose): 1.84 µM
- CC50 (786-0; Homo sapiens, 786-0, five dose, read-out: LC50 (the source's name)): 6.46 µM
- Growth percent 786-0 (786-0; [6]): 43.11%
- TGI (ACHN; ACHN, five dose): 3.07 µM
- GI50 (ACHN; Homo sapiens, ACHN, five dose): 1.63 µM
- CC50 (ACHN; Homo sapiens, ACHN, five dose, read-out: LC50 (the source's name)): 5.77 µM
- Growth percent ACHN (ACHN; [6]): 7.55%
- GI50 (RXF 393; Homo sapiens, RXF 393, five dose): 1.6 µM
- CC50 (RXF 393; Homo sapiens, RXF 393, five dose, read-out: LC50 (the source's name)): 7.29 µM
- TGI (RXF 393; RXF 393, five dose): 3.41 µM
- Growth percent RXF 393 (RXF 393; [6]): −15.29%
- GI50 (SN12C; Homo sapiens, SN12C, five dose): 1.59 µM
- CC50 (SN12C; Homo sapiens, SN12C, five dose, read-out: LC50 (the source's name)): 6.12 µM
- Growth percent SN12C (SN12C; [6]): 48.67%
- TGI (SN12C; SN12C, five dose): 3.12 µM
- GI50 (UO-31; Homo sapiens, UO-31, five dose): 1.19 µM
- CC50 (UO-31; Homo sapiens, UO-31, five dose, read-out: LC50 (the source's name)): 5.22 µM
- Growth percent UO-31 (UO-31; [6]): 21.83%
- TGI (UO-31; UO-31, five dose): 2.50 µM
- GI50 (PC-3; Homo sapiens, PC-3, five dose): 1.47 µM
- CC50 (PC-3; Homo sapiens, PC-3, five dose, read-out: LC50 (the source's name)): 5.74 µM
- TGI (PC-3; PC-3, five dose): 2.90 µM
- Growth percent PC-3 (PC-3; [7]): 33.32%
- TGI (DU-145; DU-145, five dose): 3.34 µM
- GI50 (DU-145; Homo sapiens, DU-145, five dose): 1.87 µM
- CC50 (DU-145; Homo sapiens, DU-145, five dose, read-out: LC50 (the source's name)): 5.99 µM
- Growth percent DU-145 (DU-145; [7]): −80.85%
- Growth percent MCF7 (Table 2: MCF) (MCF7; [8]): −85.41%
- GI50 (MCF7; Homo sapiens, MCF7, five dose): 1.23 µM
- CC50 (MCF7; Homo sapiens, MCF7, five dose, read-out: LC50 (the source's name)): 5.71 µM
- TGI (MCF7; MCF7, five dose): 2.66 µM
- Growth percent MDA-MB-231/ATCC (MDA-MB-231/ATCC; [8]): −37.28%
- GI50 (MDA-MB-231/ATCC; Homo sapiens, MDA-MB-231/ATCC, five dose): 1.2 µM
- CC50 (MDA-MB-231/ATCC; Homo sapiens, MDA-MB-231/ATCC, five dose, read-out: LC50 (the source's name)): 5.28 µM
- TGI (MDA-MB-231/ATCC; MDA-MB-231/ATCC, five dose): 2.51 µM
- Growth percent HS 578T (HS 578T; [8]): 34.31%
- TGI (HS 578T; HS 578T, five dose): 4.02 µM
- GI50 (HS 578T; Homo sapiens, HS 578T, five dose): 1.74 µM
- CC50 (HS 578T; Homo sapiens, HS 578T, five dose, read-out: LC50 (the source's name)): 9.27 µM
- TGI (BT-549; BT-549, five dose): 2.27 µM
- Growth percent BT-549 (BT-549; [8]): 91.29%
- GI50 (BT-549; Homo sapiens, BT-549, five dose): 8.91 µM
- CC50 (BT-549; Homo sapiens, BT-549, five dose, read-out: LC50 (the source's name)): 5.33 µM
- Growth percent T-47D (T-47D): 26.06%
- GI50 (MDA-MB-486; 60 cell, MDA-MB-486, five dose): 1.47 µM
- CC50 (MDA-MB-486; 60 cell, MDA-MB-486, five dose, read-out: LC50 (the source's name)): 7.34 µM
- Growth percent MDA-MB-486 (MDA-MB-486; [8]): 12.81%
- TGI (MDA-MB-486; MDA-MB-486, five dose): 3.28 µM
- GI50 (60 cancer cell lines; 60 cell, mean over panel, five dose): 1.66 µM
- CC50 (60 cancer cell lines; 60 cell, mean over panel, five dose, read-out: LC50, Mean): 6.92 µM
- Growth percent, Delta (60 cancer cell lines; delta over the cell panel, 10^−5 molar, 48 hours, SRB): 85.53%
- TGI, Mean (60 cancer cell lines; mean over panel, five dose): 3.39 µM
- Growth percent, Mean (60 cancer cell lines; mean over the cell panel, 10^−5 molar, 48 hours, SRB): −11.06%
- Growth percent, Range (60 cancer cell lines; range over the cell panel, 10^−5 molar, 48 hours, SRB): 187.88%
